Test results: PMC6715681, “A high-throughput screen to identify novel synthetic lethal compounds for the treatment of E-cadherin-deficient cells” (Scientific Reports, 2019)

Key:
Assay type in all cases: cell-based, human
MCF10A WT cells [1] = experiment: 11-point dose-response screen, cell titre blue (CTB) viability; conditions: Homo sapiens, MCF-10A, 11-point screen; for EC50: CTB, read-out: MCF10A WT CTB EC50
Method: (§1) The 11-point dose-response screen evaluated a concentration range from 0.02 µM to 20 µM for both isogenic cell lines in duplicate biological replicates (Fig. 4). One limitation to metabolism-based cellular assays is that a change in read out (fluorescence, luminescence or absorbance) may not necessarily be caused by cell death and could instead result from a cessation of proliferation due to senescence or inhibited mitochondrial respiration. For this reason, a direct measurement of cell counts using cellular imaging of nuclei stained with Hoechst 33342 was also included at the 11-point screening stage. For the CTB 11-point screen all plates had acceptable Z’ values above 0.4, with the second biological replicate having 70% above 0.6 (Fig. 4A). The Z’ values for the high-content imaging (HCI) 11-point screen plates were above 0.4 for MCF10A WT, except one plate from biological replicate two with 0.396 (Fig. 4B). However, for MCF10A CDH1^−/− HCI data, only four plates were above a Z’ of 0.4 and the mean Z’ was 0.32 compared to a mean of 0.51 for MCF10A WT. A further quality metric known as the strictly standardized mean difference (SSMD)[40] is a less conservative approach for QC and a cut-off of >3 is generally used. The mean SSMD value was 7.04 for MCF10A WT and 5.27 for MCF10A CDH1^−/− plates and indicates the MCF10A CDH1^−/− HCI data was acceptable[41]. There was a good correlation between the top hits from the HCI and CTB 11-point screening with an overlap of 31 / 40 for the top 40 compounds selected from the eventual hit selection strategies.
MCF10A WT and MCF10A CDH1^−/− cells were seeded into Corning black walled, clear bottom 384-well plates (assay plates) using a multidrop 384 reagent dispenser (Thermo Fisher Scientific) and a total volume of 50 μL per well.
As we have shown MCF10A CDH1^−/− cells have a prolonged lag to log phase growth of around 24 hours, in order to achieve a similar confluence at 72 hours post seeding MCF10A WT and MCF10A CDH1^−/− cell lines were seeded at 600 cells/well and 800 cells/well, respectively. Following seeding, plates were left for one hour at RT without stacking[46] and then centrifuged at 500 × g (RCF) for one minute. Plates were then transferred to an incubator at 37 °C and 5% CO2. At 24 hours post seeding, the MiniTrak robotic liquid handling system (Perkin Elmer) was used to transfer 352 compounds per 384-well library plate to the first 22 columns of a 384-well assay plate containing cells to achieve a 10 μM final compound concentration for the pilot, primary and single-point confirmation screens. For the 11-point dose-response screen, compounds were added to columns 1–22, but excluding edge rows A and P of the library plate to reduce edge-effects (Supplementary Fig. 2). The controls of DMSO (0.2% v/v), doxorubicin (EC80) and entinostat (EC50) were added into columns 23–24 of each assay plate (Supplementary Table 1). Cell titre blue[47] was made in-house in sterile PBS from 597 μM resazurin, 78 μM methylene blue, 1 mM potassium hexacyanoferrate (III) and 1 mM potassium hexacyanoferrate (II) trihydrate. At 69 hours post seeding, 16.7% v/v CTB was added to plates and they were incubated at 37 °C for 3 hours (Supplementary Fig. 1). At 72 hours post seeding, plates were removed from the incubator and left for 30 minutes at RT to equalise the temperature across all wells of the plates and reduce fluorescence-based edge effects before reading on an EnVision (PerkinElmer) at 550 nm excitation and 590 nm emission to quantify cell viability.
Supplementary Table 1. Killing control and SL control effective concentrations.
Doxorubicin EC80 0.3 µM 0.4 µM
MCF10A WT cells were seeded at 600/well and MCF10A CDH1-/- cells at 800/well in 384-well plates. Drugs
were added at 24 hours post seeding and CTB was used as an end-point assay. Concentrations were normalized

MCF10A CDH1^−/− cells [2] = experiment: IncuCyte real-time live cell imaging (cell confluence); conditions: for Greatest SL difference in the slope of the growth trendline, MCF10A CDH1^−/− compared to MCF10A WT: linear growth phase; for Growth rate effect in MCF10A CDH1^−/− cells (in words): all concentrations between 2.5–20 μM, 48 hours
Method: (§2) Real-time viability assays were performed on the two lead compounds SLEC-8 and SLEC-11 using the two isogenic MCF10A cell lines. The IncuCyte and xCELLigence assay systems quantify cell growth over the drugging period in real-time, allowing for the assessment of even subtle growth inhibitory effects following compound treatment. The IncuCyte was used in combination with an end-point assay (nuclei counting) to give both live cell imaging and normalized cell counts for each plate.
(§3) Figure 9 IncuCyte validation data for lead compounds 8 and 11. (A) Timeline for the combined live cell imaging and end-point viability assays. Plates were seeded 4,000 cells/well as described in the Methods. (B,C) One hour following compound addition, plates were transferred to the IncuCyte. Three 4x images per well were taken every two hours for 48 hours. An EC80 dose of doxorubicin was used (Supplementary Table 1). Data shown is a representative experiment of three biological replicates. Error bars are SD. The cell confluence v1.5 was calculated using the IncuCyte software. (B) Live cell imaging for SLEC-8. (C) Live cell imaging for SLEC-11. Graphs were created in Excel.
(§4) To calculate growth rates, a trendline was fitted to the linear growth phase of each cell line. The greatest SL difference in the slope of the trendline for SLEC-8 as at 10 μM treatment with 2.0 fold difference for MCF10A CDH1^−/− cells, compared to MCF10A WT. For SLEC-11 the greatest SL difference was at 20 μM, with a 4.0 fold difference in the slope of the trendline for MCF10A CDH1^−/− cells compared to MCF10A WT (data not shown).
(§5) Cells were seeded into each well of Corning’s black walled, clear bottom 96-well plates with a total volume of 100 μL per well. Edge wells were excluded. Both isogenic cell lines were seeded into the same plate to mitigate plate-to-plate variation. Plates for real-time analysis were transferred to the xCELLigence platform (ACEA Biosciences, USA) or the IncuCyte FLR imaging system (Essen BioScience, USA) as previously described.

MCF10A WT cells [3] = experiment: as above; conditions: 2.5–20 μM, 48 hours
Method: as §2, §3, §4, §5

MCF10A CDH1^−/− cells [4] = experiment: 11-point dose-response screen, high-content imaging (HCI) of Hoechst 33342 nuclei; conditions: 11-point screen; for EC50: Homo sapiens, MCF-10A, HCI
Method: as §1
A direct measurement of cell counts using cellular imaging of nuclei was also included at the 11-point screening stage. Plates were fixed, washed and stained using an ELx405 Select deep well washer (BioTek). Media was first aspirated leaving 10 μL/well, then 4% w/v PFA was added and plates left for 15 minutes at RT. Plates were then washed twice with PBS-T, before aspirating all permeabilization buffer and adding Hoechst 33342 (1 μg/mL final) in PBS. Plates were then stored in the dark at 4 °C, until being imaged on a BD Pathway 855. Two 10x images per well were taken and cell counts enumerated using CellProfiler[48].

Row | Structure (SMILES) | EC50 (MCF10A WT cells [1]) | Greatest SL difference in the slope of the growth trendline, MCF10A CDH1^−/− compared to MCF10A WT (MCF10A CDH1^−/− cells [2]; 10 μM treatment) | Growth rate effect in MCF10A CDH1^−/− cells (in words) (MCF10A CDH1^−/− cells [2]) | Growth reduction in MCF10A WT cells (in words) (MCF10A WT cells [3]) | EC50 ratio between MCF10A WT and MCF10A CDH1^−/− cells (MCF10A CDH1^−/− cells [4]; value corresponds to the HCI EC50s of Fig. 5) | EC50 (MCF10A CDH1^−/− cells [4]) | activity at 20 µM (MCF10A WT cells [1]; viability of WT cells at highest concentration 20 μM, read-out: MCF10A WT POC at 20 μM) | Greatest SL difference in the slope of the growth trendline, MCF10A CDH1^−/− compared to MCF10A WT (MCF10A CDH1^−/− cells [2]; 20 μM treatment)
1 | CC(O)CNCc1ccc(OCc2ccc(Cl)cc2Cl)cc1 (stereo not drawn) [SLEC-8] | 17.5 µM | 2.0 fold | dose-dependent growth rate reduction | only observed at the higher concentrations | 5.03 fold change | 2.02 µM |  | 
2 | COc1ccc2nc(C)cc(NCc3ccc(F)cc3)c2c1 [SLEC-11, N-(4-Fluorobenzyl)-6-methoxy-2-methylquinolin-4-amine] | > 20 µM |  | dose-dependent growth rate reduction | only observed at the higher concentrations |  | 7.34 µM | 100% | 4.0 fold
